Laboratory results from patent US20100041892A1, “Therapeutic agent for diabetes” (priority 2005, published 2010).

| melting point [°C] | Compound |
| --- | --- |
| 156 to 158 | CCCCCS(=O)(=O)NC(=O)CCc1cc(OCc2nnc(C)o2)nn1Cc1ccc(Cl)cc1Cl [Example 105, 3-{1-(2,4-dichlorobenzyl)-3-[(5-methyl-1,3,4-oxadiazol-2-yl)methoxy]-1H-pyrazol-5-yl}-N-(pentylsulfonyl)propanamide] |
| 82 to 85 | CCCCCS(=O)(=O)NC(=O)/C=C/c1cc(OCCOC)nn1Cc1ccc(Cl)cc1Cl [Example 109, (2E)-3-[1-(2,4-dichlorobenzyl)-3-(2-methoxyethoxy)-1H-pyrazol-5-yl]-N-(pentylsulfonyl)acrylamide] |
| 110 to 114 | COCCOc1cc(/C=C/C(=O)NS(=O)(=O)CCC(C)C)n(Cc2ccc(Cl)cc2Cl)n1 [Example 110, (2E)-3-[1-(2,4-dichlorobenzyl)-3-(2-methoxyethoxy)-1H-pyrazol-5-yl]-N-[(3-methylbutyl)sulfonyl]acrylamide] |
| 144 to 147 | CCCCCS(=O)(=O)NC(=O)/C=C/c1cc(OCC2(C)COC2)nn1Cc1ccc(C(F)(F)F)cc1Cl [Example 113, (2E)-3-{1-[2-chloro-4-(trifluoromethyl)benzyl]-3-[(3-methyloxetan-3-yl)methoxy]-1H-pyrazol-5-yl}-N-(pentylsulfonyl)acrylamide] |
| 138 to 139 | COCCCS(=O)(=O)NC(=O)/C=C/c1cc(OC(C)C)nn1Cc1ccc(C(F)(F)F)cc1Cl [Example 115, (2E)-3-{1-[2-chloro-4-(trifluoromethyl)benzyl]-3-isopropoxy-1H-pyrazol-5-yl}-N-[(3-methoxypropyl)sulfonyl]acrylamide] |
| 154 to 157 | CCCCCS(=O)(=O)NC(=O)/C=C/c1cc(OC2CCOCC2)nn1Cc1ccc(Cl)cc1Cl [Example 116, (2E)-3-[1-(2,4-dichlorobenzyl)-3-(tetrahydro-2H-pyran-4-yloxy)-1H-pyrazol-5-yl]-N-(pentylsulfonyl)acrylamide] |
| 143 to 144 | CC(C)CCS(=O)(=O)NC(=O)/C=C/c1cc(OC2CCOCC2)nn1Cc1ccc(Cl)cc1Cl [Example 117, (2E)-3-[1-(2,4-dichlorobenzyl)-3-(tetrahydro-2H-pyran-4-yloxy)-1H-pyrazol-5-yl]-N-[(3-methylbutyl)sulfonyl]acrylamide] |
| 145 to 147 | CC(C)CCS(=O)(=O)NC(=O)/C=C/c1cc(C2CC2)nn1Cc1ccc(C(F)(F)F)cc1Cl [Example 118, (2E)-3-{1-[2-chloro-4-(trifluoromethyl)benzyl]-3-cyclopropyl-1H-pyrazol-5-yl}-N-[(3-methylbutyl)sulfonyl]acrylamide] |
| 137 to 138 | COCCCS(=O)(=O)NC(=O)/C=C/c1cc(OCC2CC2)nn1Cc1ccc(C(F)(F)F)cc1Cl [Example 119, (2E)-3-[1-[2-chloro-4-(trifluoromethyl)benzyl]-3-(cyclopropylmethoxy)-1H-pyrazol-5-yl]-N-[(3-methoxypropyl)sulfonyl]acrylamide] |
| 136 to 137 | CCCCCS(=O)(=O)NC(=O)CCc1cc(C(C)(C)C)nn1Cc1ccc(C(F)(F)F)cc1Cl [Example 122, 3-{3-tert-butyl-1-[2-chloro-4-(trifluoromethyl)benzyl]-1H-pyrazol-5-yl}-N-(pentylsulfonyl)propanamide] |
| 152 to 153 | CC(C)Oc1cc(/C=C/S(=O)(=O)NC(=O)OC(C)(C)C)n(Cc2ccc(Cl)cc2Cl)n1 [Example 124, tert-butyl ({(E)-2-[1-(2,4-dichlorobenzyl)-3-isopropoxy-1H-pyrazol-5-yl]vinyl}sulfonyl)carbamate] |
| 73 to 75 | CCCCCC(=O)NS(=O)(=O)/C=C/c1cc(OC(C)C)nn1Cc1ccc(Cl)cc1Cl [Example 125, N-({(E)-2-[1-(2,4-dichlorobenzyl)-3-isopropoxy-1H-pyrazol-5-yl]vinyl}sulfonyl)hexanamide] |
| 107 to 108 | CCCCCC(=O)NS(=O)(=O)CCc1cc(OC(C)C)nn1Cc1ccc(Cl)cc1Cl [Example 126, N-({2-[1-(2,4-dichlorobenzyl)-3-isopropoxy-1H-pyrazol-5-yl]ethyl}sulfonyl)hexanamide] |

The remaining lines, values behind:

| Compound | melting point [°C] |
| --- | --- |
| CCCCOc1cc(/C=C/C(=O)NS(=O)(=O)CCC(C)C)n(Cc2ccc(Cl)cc2Cl)n1 [Example 99, (2E)-3-[3-butoxy-1-(2,4-dichlorobenzyl)-1H-pyrazol-5-yl]-N-[(3-methylbutyl)sulfonyl]acrylamide] | 119 to 120 |
| CCCCCS(=O)(=O)NC(=O)/C=C/c1cc(OCCCC)nn1Cc1ccc(C(F)(F)F)cc1 [Example 103, (2E)-3-{3-butoxy-1-[4-(trifluoromethyl)benzyl]-1H-pyrazol-5-yl}-N-(pentylsulfonyl)acrylamide] | 159 to 160 |
| CCCCCS(=O)(=O)NC(=O)/C=C/c1cc(OCCCC)nn1Cc1ccc(C(F)(F)F)cc1Cl [Example 106, (2E)-3-{3-butoxy-1-[2-chloro-4-(trifluoromethyl)benzyl]-1H-pyrazol-5-yl}-N-(pentylsulfonyl)acrylamide] | 130 to 132 |
| CCCCCS(=O)(=O)NC(=O)CCc1cc(OCCCC)nn1Cc1ccc(C(F)(F)F)cc1Cl [Example 107, 3-{3-butoxy-1-[2-chloro-4-(trifluoromethyl)benzyl]-1H-pyrazol-5-yl}-N-(pentylsulfonyl)propanamide] | 131 to 133 |
| COCCCS(=O)(=O)NC(=O)CCc1cc(OCC2CC2)nn1Cc1ccc(C(F)(F)F)cc1Cl [Example 120, 3-[1-[2-chloro-4-(trifluoromethyl)benzyl]-3-(cyclopropylmethoxy)-1H-pyrazol-5-yl]-N-[(3-methoxypropyl)sulfonyl]propanamide] | 152 to 154 |
| COCCCS(=O)(=O)NC(=O)CCc1cc(C(C)(C)C)nn1Cc1ccc(C(F)(F)F)cc1Cl [Example 123, 3-{3-tert-butyl-1-[2-chloro-4-(trifluoromethyl)benzyl]-1H-pyrazol-5-yl}-N-[(3-methoxypropyl)sulfonyl]propanamide] | 149 to 150 |
| CCCCOc1cc(/C=C/S(=O)(=O)NC(=O)OC(C)(C)C)n(Cc2ccc(Cl)cc2Cl)n1 [Example 127, tert-butyl ({(E)-2-[3-butoxy-1-(2,4-dichlorobenzyl)-1H-pyrazol-5-yl]vinyl}sulfonyl)carbamate] | 152 to 153 |
| CCCCCC(=O)NS(=O)(=O)CCc1cc(OCCCC)nn1Cc1ccc(Cl)cc1Cl [Example 128, N-({2-[3-butoxy-1-(2,4-dichlorobenzyl)-1H-pyrazol-5-yl]ethyl}sulfonyl)hexanamide] | 90 to 92 |
| CCCCOC(=O)NS(=O)(=O)/C=C/c1cc(OCCCC)nn1Cc1ccc(Cl)cc1Cl [Example 130, butyl ({(E)-2-[3-butoxy-1-(2,4-dichlorobenzyl)-1H-pyrazol-5-yl]vinyl}sulfonyl)carbamate] | 137 to 138 |
| CCCCCC(=O)NS(=O)(=O)/C=C/c1cc(OCCCC)nn1Cc1ccc(Cl)cc1Cl [Example 131, N-({(E)-2-[3-butoxy-1-(2,4-dichlorobenzyl)-1H-pyrazol-5-yl]vinyl}sulfonyl)hexanamide] | 117 to 119 |
| CCCCOc1cc(CCS(=O)(=O)NC(=O)OCCC)n(Cc2ccc(Cl)cc2Cl)n1 [Example 132, propyl ({2-[3-butoxy-1-(2,4-dichlorobenzyl)-1H-pyrazol-5-yl]ethyl}sulfonyl)c arbamate] | 92 to 94 |
